Measurements as given in patent US20140255392A1 (BAYER INTELLECTUAL PROPERTY GMBH, priority 2011, published 2014).

Molecular target: T1, human kinase Mps-1 (Homo sapiens, UniProt P33981)
T1 construct: N-terminally GST-tagged human full length recombinant Mps-1 kinase; GST (N); purchased Invitrogen, Karslruhe, Germany PV4071
T1 sequence (P33981 1-857): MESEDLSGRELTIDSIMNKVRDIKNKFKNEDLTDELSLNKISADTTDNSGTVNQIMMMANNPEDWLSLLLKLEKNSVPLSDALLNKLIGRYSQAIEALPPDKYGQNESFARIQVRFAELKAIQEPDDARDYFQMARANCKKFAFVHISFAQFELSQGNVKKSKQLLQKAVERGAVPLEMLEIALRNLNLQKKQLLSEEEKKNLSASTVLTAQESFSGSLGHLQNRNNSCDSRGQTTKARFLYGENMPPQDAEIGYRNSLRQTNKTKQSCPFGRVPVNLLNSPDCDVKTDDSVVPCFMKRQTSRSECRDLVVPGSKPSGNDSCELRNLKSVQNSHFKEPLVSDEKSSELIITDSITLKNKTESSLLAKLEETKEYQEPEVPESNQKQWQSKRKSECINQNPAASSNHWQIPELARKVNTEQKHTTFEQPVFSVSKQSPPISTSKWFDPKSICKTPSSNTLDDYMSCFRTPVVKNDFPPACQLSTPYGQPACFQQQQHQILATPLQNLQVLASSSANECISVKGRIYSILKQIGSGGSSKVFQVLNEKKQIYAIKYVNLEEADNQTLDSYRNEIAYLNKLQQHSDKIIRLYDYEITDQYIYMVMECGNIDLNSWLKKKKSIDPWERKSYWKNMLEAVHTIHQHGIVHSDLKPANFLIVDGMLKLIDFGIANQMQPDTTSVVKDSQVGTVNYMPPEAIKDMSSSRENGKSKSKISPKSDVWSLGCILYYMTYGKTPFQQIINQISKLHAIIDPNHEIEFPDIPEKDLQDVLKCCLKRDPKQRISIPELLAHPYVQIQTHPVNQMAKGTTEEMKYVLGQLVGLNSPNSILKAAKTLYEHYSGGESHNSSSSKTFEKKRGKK
Test: Mps-1 kinase assay (TR-FRET)
Type: biochemical
Conditions: N-terminally GST-tagged human full length recombinant Mps-1; 10 μM ATP; 1 μM peptide substrate; 60 min at 22° C.
Method in brief: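 Kinase activity of N-terminally GST-tagged full-length recombinant Mps-1, used at about 1 nM final and set within the linear range, was measured on a biotinylated peptide substrate. Phosphopeptide was detected by TR-FRET from Eu-anti-phospho(Ser/Thr) antibody to streptavidin-XLent after 1 h at 22° C.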

Structure (SMILES) | IC50
CCNC(=O)c1ccc(-c2cc(NCCC(F)(F)F)c3ncc(-c4ccc(C(=O)NC)c(C)c4)n3c2)cc1C [Example 159, 4-{6-[4-(ethylcarbamoyl)-3-methylphenyl]-8-[(3,3,3-trifluoropropyl)amino]imidazo[1,2-a]pyridin-3-yl}-N,2-dimethylbenzamide] | 9.1 nM
Cc1cc(-c2cnc3c(NCC(F)F)cc(Oc4cc(F)ccc4F)cn23)ccc1C(=O)NC1CC1 [Example 165, N-cyclopropyl-4-{8-[(2,2-difluoroethyl)amino]-6-(2,5-difluorophenoxy)imidazo[1,2-a]pyridin-3-yl}-2-methylbenzamide] | 48.3 nM
CCc1cc(NCCC(F)(F)F)c2ncc(-c3ccc(C(=O)NC4(C)CC4)c(C)c3)n2c1 [Example 102, 4-{6-Ethyl-8-[(3,3,3-trifluoropropyl)amino]imidazo[1,2-a]pyridin-3-yl}-2-methyl-N-(1-methylcyclopropyl)benzamide] | 131 nM
Cc1cc(-c2cnc3c(NCCC(F)(F)F)cc(CCO)cn23)ccc1C(=O)NC1CC1 [Example 141, N-cyclopropyl-4-{6-(2-hydroxyethyl)-8-[(3,3,3-trifluoropropyl)amino]imidazo[1,2-a]pyridin-3-yl}-2-methylbenzamide] | 26.2 nM
CCNC(=O)c1ccc(-c2cnc3c(NCCC(F)(F)F)cc(C#CCO)cn23)cc1C [Example 21, N-ethyl-4-{6-(3-hydroxyprop-1-yn-1-yl)-8-[(3,3,3-trifluoropropyl)amino]imidazo[1,2-a]pyridin-3-yl}-2-methylbenzamide] | 33.7 nM
C=Cc1cc(NCCC(F)(F)F)c2ncc(-c3ccc(C(=O)NC)c(C)c3)n2c1 [Example 93, N,2-dimethyl-4-{8-[(3,3,3-trifluoropropyl)amino]-6-vinylimidazo[1,2-a]pyridin-3-yl}benzamide] | 68.6 nM
Cc1cc(-c2cnc3c(NCCC(F)(F)F)cc(Oc4cccc(F)c4)cn23)ccc1C(=O)NC1(C)CC1 [Example 11, 4-{6-(3-Fluorophenoxy)-8-[(3,3,3-trifluoropropyl)amino]imidazo[1,2-a]pyridin-3-yl}-2-methyl-N-(1-methylcyclopropyl)benzamide] | 3.8 nM
C/C=C/c1cc(NCCC(F)(F)F)c2ncc(-c3ccc(C(=O)N[C@H]4C[C@@H]4F)c(C)c3)n2c1 (relative stereo) [Example 116, N-[rel-(1S,2S)-2-fluorocyclopropyl]-2-methyl-4-{6-[(1E)-prop-1-en-1-yl]-8-[(3,3,3-trifluoropropyl)amino]imidazo[1,2-a]pyridin-3-yl}benzamide] | 19.9 nM
CCNC(=O)c1ccc(-c2cnc3c(NCCC(F)(F)F)cc(Oc4cccc(OC(F)(F)F)c4)cn23)cc1C [Example 77, N-ethyl-2-methyl-4-{6-[3-(trifluoromethoxy)phenoxy]-8-[(3,3,3-trifluoropropyl)amino]imidazo[1,2-a]pyridin-3-yl}benzamide] | 51 nM
CNC(=O)c1ccc(-c2cnc3c(NCCC(F)(F)F)cc(-c4ccc(C(=O)NC5(C#N)CC5)c(C)c4)cn23)cc1C [Example 156, 4-(6-{4-[(1-cyanocyclopropyl)carbamoyl]-3-methylphenyl}-8-[(3,3,3-trifluoropropyl)amino]imidazo[1,2-a]pyridin-3-yl)-N,2-dimethylbenzamide] | 21.3 nM
CNC(=O)c1ccc(-c2cnc3c(NCCC(F)(F)F)cc(Oc4ccc(OC(F)(F)F)c(F)c4)cn23)cc1C [Example 86, 4-{6-[3-Fluoro-4-(trifluoromethoxy)phenoxy]-8-[(3,3,3-trifluoropropyl)amino]imidazo[1,2-a]pyridin-3-yl}-N,2-dimethylbenzamide] | 56.7 nM

Now those with a lower IC50, led by results:

IC50 | Structure (SMILES)
2.6 nM | Cc1cc(-c2cnc3c(NCCC(F)(F)F)cc(-c4ccc(C(=O)NC5(CO)CC5)c(C)c4)cn23)ccc1C(=O)NC1CC1 [Example 151, 4-{3-[4-(cyclopropylcarbamoyl)-3-methylphenyl]-8-[(3,3,3-trifluoropropyl)amino]imidazo[1,2-a]pyridin-6-yl}-N-[1-(hydroxymethyl)cyclopropyl]-2-methylbenzamide]
2.3 nM | CCNC(=O)c1ccc(-c2cnc3c(NCCC(F)(F)F)cc(Oc4ccccc4)cn23)cc1C [Example 60, N-ethyl-2-methyl-4-{6-phenoxy-8-[(3,3,3-trifluoropropyl)amino]imidazo[1,2-a]pyridin-3-yl}benzamide]
1.9 nM | CCNC(=O)c1ccc(-c2cnc3c(NCC4CCOCC4)cc(Oc4ccc(OC)c(F)c4)cn23)cc1C [Example 122, N-ethyl-4-{6-(3-fluoro-4-methoxyphenoxy)-8-[(tetrahydro-2H-pyran-4-ylmethyl)amino]imidazo[1,2-a]pyridin-3-yl}-2-methylbenzamide]
1.8 nM | CCNC(=O)c1ccc(-c2cnc3c(NCCC(F)(F)F)cc(Oc4ccc(OC)c(F)c4)cn23)cc1C [Example 107, N-ethyl-4-{6-(3-fluoro-4-methoxyphenoxy)-8-[(3,3,3-trifluoropropyl)amino]imidazo[1,2-a]pyridin-3-yl}-2-methylbenzamide]
1.5 nM | CNC(=O)c1ccc(-c2cnc3c(NCC4CCOCC4)cc(Oc4ccc(OC)c(F)c4)cn23)cc1C [Example 121, 4-{6-(3-Fluoro-4-methoxyphenoxy)-8-[(tetrahydro-2H-pyran-4-ylmethyl)amino]imidazo[1,2-a]pyridin-3-yl}-N,2-dimethylbenzamide]
1.3 nM | Cc1ccc(F)cc1Oc1cc(NCCC(F)(F)F)c2ncc(-c3ccc(C(=O)N[C@H]4C[C@@H]4F)c(C)c3)n2c1 (relative stereo) [Example 29, N-[rel-(1S,2S)-2-fluorocyclopropyl]-4-{6-(5-fluoro-2-methylphenoxy)-8-[(3,3,3-trifluoropropyl)amino]imidazo[1,2-a]pyridin-3-yl}-2-methylbenzamide]
1 nM | CCNC(=O)c1ccc(-c2cc(NCCC(F)(F)F)c3ncc(-c4ccc(C(=O)NC5CC5)c(C)c4)n3c2)cc1C [Example 148, 4-{3-[4-(cyclopropylcarbamoyl)-3-methylphenyl]-8-[(3,3,3-trifluoropropyl)amino]imidazo[1,2-a]pyridin-6-yl}-N-ethyl-2-methylbenzamide]
0.5 nM | Cc1cc(-c2cnc3c(NCCC(F)(F)F)cc(Oc4cccc(O)c4)cn23)ccc1C(=O)NC1CC1 [Example 136, N-cyclopropyl-4-{6-(3-hydroxyphenoxy)-8-[(3,3,3-trifluoropropyl)amino]imidazo[1,2-a]pyridin-3-yl}-2-methylbenzamide]
0.4 nM | Cc1cc(-c2cnc3c(NCCC(F)(F)F)cc(Sc4ccccc4O)cn23)ccc1C(=O)NC1CC1 [Example 3-6, N-cyclopropyl-4-{6-[(2-hydroxyphenyl)sulfanyl]-8-[(3,3,3-trifluoropropyl)amino]imidazo[1,2-a]pyridin-3-yl}-2-methylbenzamide]
0.4 nM | COc1ccc(Oc2cc(NCCC(F)(F)F)c3ncc(-c4ccc(C(=O)NC5CC5)c(C)c4)n3c2)cc1F [Example 42, N-cyclopropyl-4-{6-(3-fluoro-4-methoxyphenoxy)-8-[(3,3,3-trifluoroprorwl)amino]imidazo[1,2-a]pyridin-3-yl}-2-methylbenzamide]
0.3 nM | Cc1cc(-c2cnc3c(NCCC(F)(F)F)cc(Oc4cccc(F)c4)cn23)ccc1C(=O)NC1CC1 [Example 6-1, N-cyclopropyl-4-{6-(3-fluorophenoxy)-8-[(3,3,3-trifluoropropyl)amino]imidazo[1,2-a]pyridin-3-yl}-2-methylbenzamide]
